Measured values taken from patent US5242945A, “Tetronic and thiotetronic acid derivatives as phospholipase A2 inhibitors” (American Home Products Corporation, priority 1991, dated 1993).

How the values were obtained:
human platelet PLA2 = molecular target: T1, human platelet PLA2 (Homo sapiens, UniProt P14555); experiment: in vitro isolated phospholipase A2 assay, human platelet PLA2; format: biochemical; settings: for inhibition at 10 µM / inhibition at 50 µM: read-out: % Inhibition HP (human platelet)
T1 construct: platelet acid extract PLA2; from tissue; host or cells: human platelets, semipurified acid extract
T1 sequence (P14555 21-144): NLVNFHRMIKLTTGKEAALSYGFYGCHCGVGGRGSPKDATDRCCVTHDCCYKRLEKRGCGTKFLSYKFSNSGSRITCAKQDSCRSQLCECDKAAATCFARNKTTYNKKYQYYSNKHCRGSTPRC
Procedure: (§1) The compounds of the invention are tested in an in vitro isolated phospholipase A2 assay to determine the ability of the test compounds to inhibit the release of arachidonic acid from an arachidonic acid-containing substrate by the action of phospholipase A2 enzyme from human and non-human sources.
(§2) Into a 15 mL polypropylene tube are added the following:
(§3) ^3 H-AA E. coli substrate^1
(§4) Tris-HCl (0.5 M) pH 7.5^3
(§5) PLA2 25 Volume yielding 12%
(§6) 100 hydrolysis in 10 min.
(§7) *pre-incubate at room temperature 30 min prior to substrate addition.
(§8) ^6 Two human PLA2 enzymes are used: a) Semipurified human
(§9) platelet acid extract PLA2 (in 10 mM sodium acetate buffer, pH 4.5).
(§10) Remove protein precipitate by centrifugation at about 2200 rpm for 10
(§11) minutes. b) Purified human synovial fluid.
(§12) Incubate the 100 μL reaction mixture for 10 minutes at 37° C. in a shaking water bath. The reaction is terminated by the addition of 2 mL tetrahydrofuran, followed by vortexing. NH2 columns (100 μg/mL--Analytichem International) are conditioned with 0.5 mL tetrahydrofuran followed by 0.5 mL tetrahydrofuran/water (2 mL:0.1 mL, v/v).
(§13) The sample is loaded onto the columns and slowly drawn through them. The hydrolyzed arachidonic acid retained in the columns is eluted therefrom with 1 mL tetrahydrofuran/glacial acetic acid (2%). The arachidonic acid is transferred to scintillation vials and quantitated by β-counting analysis. A "total counts" sample is prepared by pipetting 25 μL ^3 H-arachidonate E. coli directly into a scintillation vial to which is added 1 mL tetrahydrofuran. 10 mL aquasol (scintillation cocktail) is added to all samples.

[1] = molecular target: T2, human synovial fluid PLA2 (Homo sapiens, UniProt P14555); experiment: in vitro isolated phospholipase A2 assay, human synovial fluid PLA2; format: biochemical; settings: for inhibition at 10 µM / inhibition at 50 µM: read-out: % Inhibition HSF (human synovial fluid)
T2 construct: Purified human synovial fluid; from tissue; host or cells: human synovial fluid
T2 sequence (P14555 21-144): T1 sequence (P14555 21-144)
Procedure: as §1, §2, §3, §4, §5, §6, §7, §8, §9, §10, §11, §12, §13

cyclooxygenase (PGE2) = experiment: resident murine peritoneal macrophage assay, PGE2; format: cell-based, mouse (Swiss Webster); settings: Mus musculus, Peritoneal macrophage
Procedure: (§14) The ability of the compounds of the invention to act as inhibitors of the enzymes 5-lipoxygenase and cyclooxygenase is measured in the resident murine peritoneal macrophage assay.
Resident peritoneal macrophages are collected from female Swiss Webster mice (49 days old, 20-25 gms, Buckshire) by lavaging with 7-8 ml Hanks Balanced Salt Solution (HBSS) without Ca^++ and Mg^++ (GIBCO). The lavage fluid from several mice is pooled and centrifuged at 4° C. for 10 minutes at 400 xg. The cell pellet is resuspended in Medium 199 (GIBCO) with HEPES buffer containing 100 μg/ml gentamicin. Two ml of the cell suspension (4×10^6 cells) are then plated on 35 mm culture dishes (Nunc).
A macrophage monolayer is established after a 1-1.5 hour incubation of the cells at 37° C. in an atmosphere of […] and 5% CO2. The monolayers are washed 2× with 2 ml HBDSS, containing Ca^++ and Mg^++ after which 2 ml Medium 199 supplemented with 10% freshly thawed heat-inactivated fetal bovine serum and 100 μg/ml gentamicin is added for an overnight incubation.
(§15) Residual serum and cellular debris are removed from the monolayers by washing 3× with 2 ml HBSS containing Ca^++ and Mg^++. Macrophages are preincubated for 5 minutes with 1 ml serum-free M199 containing 10 μl dimethyl sulfoxide (DMSO) vehicle or test compound prior to cell activation with zymosan ([…]) or arachidonic acid (AA) (2 μM). After 2 hours, the supernatants are removed and either assayed for LTC4 and PGE2 by radioimmunoassay (RIA) directly or stored at -20° C. In all cases, results are expressed as ng metabolite/4×10^6 cells.
(§16) Raw data (dpm) may be stored directly onto an "Autostart" tape using the HP85 in room C-096. The raw data are converted to ng metabolite/4-10^6cells using the standard curve by a "RIANAL" program (HP85) or a "NONLIN" program (HP9816). Results are then expressed as percent inhibition of zymosan induced, leukotriene or prostaglandin synthesis (control) using the equation: [formula]

5-lipoxygenase (LTC4) = experiment: resident murine peritoneal macrophage assay, LTC4; format: cell-based, mouse (Swiss Webster); settings: Mus musculus, Peritoneal macrophage; zymosan stimulation; 0.1 μM
Procedure: as §14
Resident peritoneal macrophages are collected from female Swiss Webster mice (49 days old, 20-25 gms, Buckshire) by lavaging with 7-8 ml Hanks Balanced Salt Solution (HBSS) without Ca^++ and Mg^++ (GIBCO). The lavage fluid from several mice is pooled and centrifuged at 4° C. for 10 minutes at 400 xg.
as §15, §16

[2] = at 10 μM, + values given without explanation

| Compound | inhibition at 10 µM (human platelet PLA2; [2]) [%] | inhibition at 10 µM [1, 2] [%] | other results |
| --- | --- | --- | --- |
| 4-Hydroxy-3-(1-oxoeicosanoyl)-2(5H)-furanone [Example 11] | – | – | % Inhibition HP (human platelet) (human platelet PLA2; [2]): 6.7%; % Inhibition HSF (human synovial fluid) [1, 2]: 32% |
| CCCCCCCC[C@@H]1C[C@@H]1CCCCCCCC(=O)C1=C(O)CSC1=O (relative stereo) [Example 52, 4-Hydroxy-3-[(Z)-8-(2-octylcyclopropyl)-1-oxooctyl]-2(5H)-thiophenone] | 8.4 | 18.6 | – |
| CCCCC[C@@H]1C[C@@H]1CC(=O)C1=C(O)COC1=O (relative stereo) [Example 53, 4-Hydroxy-3-[(Z)-1-oxo-2-(2-pentylcyclopropy)ethyl]-2(5H)-furanone] | 1.7 | 0.1 | – |
| CCCC[C@@H]1C[C@@H]1CCCCCCCC(=O)C1=C(O)COC1=O (relative stereo) [Example 54, 4-Hydroxy-3-[(Z)-8-(2-butylcyclopropyl)-1-oxooctyl]-2(5H)-furanone] | – | – | inhibition at 0.1 µM (cyclooxygenase (PGE2); zymosan stimulation, 0.1 μM): 49.5%; inhibition at 0.1 µM (5-lipoxygenase (LTC4)): 59.3% |
| CCCCCC#CCC#CCC#CCC#CCCCC(=O)O [ETYA, reference compound] | – | – | IC50 (cyclooxygenase (PGE2); reference compounds, 95% confidence limits on next line, read-out: IC50 PGE2): 1.26 µM |
| O=C(CCc1ccccc1)C1=C(O)COC1=O [Example 2, 4-Hydroxy-3-(1-oxo-3-phenylpropyl)-2(5H)-furanone] | – | – | inhibition at 50 µM (human platelet PLA2): 8%; inhibition at 50 µM [1]: 27% |
| O=C(COCc1ccccc1)C1=C(O)COC1=O [Example 3, 4-Hydroxy-3-[(phenylmethoxy)acetyl]-2(5H)-furanone] | – | – | inhibition at 50 µM (human platelet PLA2): 3.5%; inhibition at 50 µM [1]: 25% |
| O=C(CCc1c[nH]c2ccccc12)C1=C(O)COC1=O [Example 4, 4-Hydroxy-3-[3-(1H-indol-3-yl)-1-oxopropyl]-2(5H)-furanone] | – | – | inhibition at 50 µM (human platelet PLA2): 10%; inhibition at 50 µM [1]: 25% |
| O=C(CCCc1c[nH]c2ccccc12)C1=C(O)COC1=O [Example 5, 4-Hydroxy-3-[4-(1H-indol-3-yl)-1-oxobutyl]-2(5H)-furanone] | – | – | inhibition at 50 µM (human platelet PLA2): 0%; inhibition at 50 µM [1]: 11% |
| O=C(/C=C/c1cccc(C(F)(F)F)c1)C1=C(O)COC1=O [Example 10, (E)-4-Hydroxy-3-(1-oxo-3-(3-(trifluoromethyl)phenyl)-2-propenyl)-2 (5H)-furanone] | 9.6 | 34 | – |
| COc1ccc(OC)c(/C=C/C(=O)C2=C(O)COC2=O)c1 [Example 13, (E)-3-(3-(2,5-Dimethoxyphenyl)-1-oxo-2-propenyl)-4-hydroxy-2 (5H)-furanone] | 11 | 34 | – |
| COc1ccc(/C=C/C(=O)C2=C(O)COC2=O)cc1OC [Example 16, (E)-3-(3-(3,4-Dimethoxyphenyl)-1-oxo-2-propenyl)-4-hydroxy-2 (5H)-furanone] | 2.1 | 5.5 | – |
| CCCCCCCC/C=C\CCCCCCCC(=O)C1=C(O)C(C)(C)OC1=O [Example 17, (Z)-4-Hydroxy-5,5-dimethyl-3-(1-oxo-9-octadecenyl)-2(5H)-furanone] | 16 | 9 | – |
| O=C(CCCCCOc1ccc(Cl)cc1)C1=C(O)COC1=O [Example 21, 4-Hydroxy-3-[6-(4-chlorophenoxy)-1-oxohexyl]-2(5H)-furanone] | 2.5 | 24 | – |
| CCCCCCCC/C=C\CCCCCCCC(=O)OCC(CCC(=O)C1=C(O)COC1=O)OC(=O)CCCCCCC/C=C\CCCCCCCC (stereo not drawn) [Example 24, (Z)-9-Octadecanoic acid 5-(2,5-dihydro-4-hydroxy-3-furanyl)-5-oxo-1,2-pentanediyl ester] | 56.6 | 79.5 | – |
| CCCCCCCC/C=C\CCCCCCCC(=O)OCC(CCC(=O)O)OC(=O)CCCCCCC/C=C\CCCCCCCC (stereo not drawn) [Example 24A, 4,5-Bis[((Z)-1-oxo-9-octadecenyl)oxy]pentanoic acid] | 45.4 | 80.7 | – |
| CCCCCCCCC#CCCCCCCCC(=O)C1=C(O)COC1=O [Example 27, 4-Hydroxy-3-(1-oxo-9-octadecynyl)-2(5H)-furanone] | 34.9 | 31.2 | – |
| CCCCCCCCCCCCCCCCCC(=O)C1=C(O)COC1=O [Example 28, 4-Hydroxy-3-(1-oxooctadecyl)-2(5H)-furanone] | 37.4 | 12.6 | – |
| O=C(CCCCCCCCOc1ccc(Cl)cc1)C1=C(O)COC1=O [Example 29, 3-[9-(4-Chlorophenoxy)-1-oxononyl]-4-hydroxy-2(5H)-furanone] | 20.6 | 33.6 | – |
| CCCCCCCCCCCCNC(=O)OCC(CCC(=O)C1=C(O)COC1=O)OC(=O)NCCCCCCCCCCCC (stereo not drawn) [Example 31, Dodecylcarbamic acid 5-(2,5-dihydro-4-hydroxy-2-oxo-3-furanyl)-5-oxo-1,2-pentanediyl ester] | 33.5 | 34.5 | – |
| CCCCCCCCCCCCNC(=O)OCC(CCC(=O)O)OC(=O)NCCCCCCCCCCCC (stereo not drawn) [Example 31A, 4,5-Bis[[(Dodecylamino)carbonyl]oxy]pentanoic acid] | 47.7 | 43.2 | – |
| O=C(CCCCCOc1ccc(OCc2ccc(Cl)cc2)cc1)C1=C(O)COC1=O [Example 32, 4-Hydroxy-3-[6-[4-[(4-chlorophenyl)methoxyphenoxy]]1-oxohexyl]-2(5H)-furanone] | 31.6 | 15.1 | – |
| CCCCCCOc1ccc(OCCCCCC(=O)C2=C(O)COC2=O)cc1 [Example 33, 4-Hydroxy-3-[6-[4-(hexyloxy)phenoxy]-1-oxohexyl]-2(5H)-furanone] | 37.1 | 10 | – |
| CCCCCCCC/C=C/CCCCCCCC(=O)C1=C(O)COC1=O [Example 36, 4-Hydroxy-3-((E)-1-oxo-9-octadecenyl)-2(5H)-furanone] | 25.4 | 10.3 | – |
| CCCCCCCc1ccc(OCCCCCC(=O)C2=C(O)COC2=O)cc1 [Example 37, 3-[6-(4-Heptylphenoxy)-1-oxohexyl]-4-hydroxy-2(5H)-furanone] | 22.5 | 35.7 | – |
| CC(C)(C)CC(C)(C)c1ccc(OCCCCCC(=O)C2=C(O)COC2=O)cc1 [Example 39] | 24.4 | 20.3 | – |
| CCCCCCCC/C=C\CCCCCCCCNC(=O)OC(CCC(=O)O)COC/C=C(\C)CCC=C(C)C (stereo not drawn) [Example 40A, 5-[((E)-3,7-Dimethyl-2,6-octadienyl)oxy]-4-[[((Z)-9-octadecenylamino)carbonyl]oxy]pentanoic acid] | 87.7 | 74.2 | – |
| CC1=C(CC(=O)O)c2cc(F)ccc2/C1=C\c1ccc([S+](C)[O-])cc1 (stereo not drawn) [sulindac, reference compound] | – | – | IC50 [1]: 30.2 µM |
